Data taken from the supplement of paper PMC10307832.

What was measured:
[1] = compound: CO[C@@H]1[C@H](N(C)C(=O)c2ccccc2)C[C@H]2O[C@]1(C)n1c3ccccc3c3c4c(c5c6ccccc6n2c5c31)C(=O)NC4 [Midostaurin] + O=C(CCCCCCC(=O)Nc1ccccc1)NO [Vorinostat] (partner 1 µM); assay: relative viability (nuclei count vs DMSO), 5 days (fraction); higher = more cells survive
In short: (§1)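 Nuclei were stained with Hoechst during a one-step fixation (final 0.05% Triton X-100, 1% formaldehyde, 1 ug/ml Hoechst) carried out 5 days after dosing, then counted on 4× images. The cells, lung cancer lines in 1536-well plates, had been dosed by pin tool the day after seeding with one drug alone or a fixed anchor-drug dose plus five library-drug doses (not always all listed) in √10 steps. Relative viability is the nuclei count in treated wells divided by that in vehicle wells, and each value is the median of duplicate plates.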

[2] = compound: CO[C@@H]1[C@H](N(C)C(=O)c2ccccc2)C[C@H]2O[C@]1(C)n1c3ccccc3c3c4c(c5c6ccccc6n2c5c31)C(=O)NC4 [Midostaurin] + NC(=O)Nc1cc(-c2cccc(F)c2)sc1C(=O)N[C@H]1CCCNC1 [AZD7762] (partner 0.2 µM); assay: as above
In short: as §1

Cell Line	relative viability ([1]; first compound 0.01 µM)	relative viability ([1]; first compound 0.03162 µM)	relative viability ([1]; first compound 0.1 µM)	relative viability ([1]; first compound 0.3162 µM)	relative viability ([2]; first compound 0.01 µM)	relative viability ([2]; first compound 0.03162 µM)	relative viability ([2]; first compound 0.1 µM)	relative viability ([2]; first compound 0.3162 µM)
NCI-H650	0.431	0.474	0.875	0.412	1.01	1.04	0.942	1.11
NCI-H661	0.777	0.72	0.792	0.739				
NCI-H727	1.4	1.11	1.16	1.26	0.616	0.696	0.947	0.639
NCI-H838	0.72	0.705	0.606	0.262	0.843	0.892	0.848	0.865
NCI-H1355	0.665	0.672	0.619	0.667	0.703	0.798	0.766	0.674
NCI-H1395	0.651	0.856	0.671	0.682	0.407	0.427	0.408	0.429
NCI-H1437	0.869	0.833	0.818	0.654	1.14	1.1	1.06	1.11
NCI-H1648	0.534			0.497	0.766			0.656
NCI-H1650	0.57	0.606	0.585	0.793				
NCI-H1651	0.566	0.571	0.566	0.593	0.455	0.557	0.459	0.478
NCI-H1666	1.12	0.985	1.02	0.999	0.881	0.804	0.911	0.778
NCI-H1703					0.141	0.115	0.123	0.12
NCI-H1734	0.796	0.818	0.855	0.467	0.498	0.537	0.543	0.39
NCI-H1755	0.748	0.809	0.715	0.783	0.492	0.422	0.447	0.402
NCI-H1792					0.786	0.725	0.67	0.176
NCI-H1793	0.766	0.789	0.854	0.296	0.395	0.48	0.388	0.213
NCI-H1915	0.447	0.487	0.576	0.513	0.654	0.679	0.671	0.709
NCI-H1944	0.528	0.595	0.496	0.453	0.507	0.616	0.493	0.56
NCI-H1975	0.695	0.706	0.574	0.416	0.818	0.756	0.673	0.654
NCI-H1993	0.83	0.782	0.87	0.38	0.762	0.77	0.699	0.5

Cell Line	relative viability ([1]; first compound 0.01 µM)	relative viability ([1]; first compound 0.03162 µM)	relative viability ([1]; first compound 0.1 µM)	relative viability ([1]; first compound 0.3162 µM)	relative viability ([2]; first compound 0.01 µM)	relative viability ([2]; first compound 0.03162 µM)	relative viability ([2]; first compound 0.1 µM)	relative viability ([2]; first compound 0.3162 µM)
NCI-H2009	0.808	0.745	0.703	0.657				
NCI-H2023	0.601	0.78	0.5	0.146				
NCI-H2085	0.79	0.783	0.822	0.637	0.938	0.998	0.93	0.623
NCI-H2087	0.56	0.528	0.462	0.429	1.39	1.16	1.36	1.03
NCI-H2126	0.812	0.631	0.866	0.831	0.95	0.926	0.995	1.03
NCI-H2170	0.857	0.843	0.774	0.699	0.891	0.85	0.866	1.14
NCI-H2228	0.878	0.424	0.716	0.356				
NCI-H2342	0.741	0.764	0.836	0.831	0.558	0.503	0.489	0.451
NCI-H2347	0.575	0.511	0.602	0.419	0.799	0.774	0.712	0.587
NCI-H2405	1.05	1.24	1.01	1.02	0.682	0.804	0.847	0.75
NCI-H3122	0.963	0.904	0.905	0.89	0.981	0.908	0.962	1.06
PC-3 [JPC-3]	0.776	0.788	0.68	1.07	0.737	0.892	0.759	0.869
PC-14	0.719	0.673	0.67	0.666	0.33	0.42	0.329	0.328
RERF-LC-KJ	0.715	0.709	0.67	0.646	0.994	0.96	1.05	1.03
SK-LU-1	0.735	0.765	0.685	0.47				
SK-MES-1	1.07	0.968	0.982	1.08				
SW 900	0.402	0.502	0.52	0.458	0.755	0.684	0.617	0.476
SW 1573	0.717	1.09	0.732	1.02				
UMC-11	0.424	0.445	0.242	0.187				
